The values below come from US8648092B2, “Imidazo[1,2-a]pyridine derivatives: preparation and pharmaceutical applications” (MEI Pharma, priority 2005, dated 2014).

Structures are written as SMILES. Where only a bound is given, the exact number is not on record here.

For one experiment, the system named is Colo205 cells. The experiment can be described thus: Cell-based proliferation assay for determination of GI50 values (CyQUANT). Further details: species or system human. The note with it: Homo sapiens. On the procedure: Cell-Based Proliferation Assay for Determination of GI50 Values
Human cancer cell lines (e.g. Colo205) were obtained from ATCC. Colo205 cells were cultivated in RPMI 1640 containing 2 mM L-Glutamine, 5% FBS, 1.0 mM Na Pyruvate. Colo205 cells were seeded in 96-wells plate at 5000 cells per well. The plates were incubated at 37° C., 5% CO2, for 24 h. Cells were treated with compounds at various concentrations for 96 h. Cell growth was then monitored using CyQUANT® cell proliferation assay (Invitrogen Pte Ltd). Dose response curves were plotted to determine GI50 values for the compounds using XL-fit (ID Business Solution, Emeryville, Calif.). GI50 is defined as the concentration of compound required for 50% inhibition of cell growth.
The cellular or growth inhibition activity results of representative compounds are shown in Table 4 below (unit in the table is micromolar).

The target in experiment [1] is HDAC1 enzyme (recombinant GST-HDAC1) (Homo sapiens (Human), UniProt Q13547). The experiment can be described thus: In vitro HDAC assay for determination of IC50 values (BIOMOL fluorescent-based HDAC activity assay). Format: biochemical. The note with it: Flur de lys substrate, 2 h room temperature, read-out: IC50 (HDAC 1). On the procedure:
Biological Testing and Enzyme Assays Recombinant GST-HDAC1 Protein Expression and Purification
Human cDNA library was prepared using cultured SW620 cells. Amplification of human HDAC1 coding region from this cDNA library was cloned separately into the baculovirus expression pDEST20 vector (GATEWAY Cloning Technology, Invitrogen Pte Ltd). The pDEST20-HDAC1 construct was confirmed by DNA sequencing. Recombinant baculovirus was prepared using the Bac-To-Bac method following the manufacturer's instruction (Invitrogen Pte Ltd).
Expression of GST-HDAC1 was done by infecting SF9 cells (Invitrogen Pte Ltd) with pDEST20-HDAC1 baculovirus at MOI=1 for 48 h. Soluble cell lysate was incubated with pre-equilibrated Glutathione Sepharose 4B beads (Amersham) at 4° C. for 2 h. The beads were washed with PBS buffer for 3 times. The GST-HDAC1 protein was eluted by elution buffer containing 50 mM Tris, pH8.0, 150 mM NaCl, 1% Triton X-100 and 10 mM or 20 mM reduced Glutathione. The purified GST-HDAC1 protein was dialyzed with HDAC storage buffer containing 10 mM Tris, pH7.5, 100 mM NaCl and 3 mM MgCl2. 20% Glycerol was added to purified GST-HDAC1 protein before storage at −80° C.
In Vitro HDAC Assay for Determination of IC50 Values
The assay has been carried out in 96 well format and the BIOMOL fluorescent-based HDAC activity assay has been applied. […] Flur de lys Developer was added and the reaction was incubated for 10 min. Briefly, deacetylation of the substrate sensitizes it to the developer, which then generates a fluorophore. The fluorophore is excited with 360 nm light and the emitted light (460 nm) is detected on a fluorometric plate reader (Tecan Ultra Microplate detection system, Tecan Group Ltd.).
The analytical software, Prism 4.0 (GraphPad Software Inc) has been used to generate IC50 from a series of data.

Chain of HDAC1 enzyme (recombinant GST-HDAC1) (Q13547 whole entry): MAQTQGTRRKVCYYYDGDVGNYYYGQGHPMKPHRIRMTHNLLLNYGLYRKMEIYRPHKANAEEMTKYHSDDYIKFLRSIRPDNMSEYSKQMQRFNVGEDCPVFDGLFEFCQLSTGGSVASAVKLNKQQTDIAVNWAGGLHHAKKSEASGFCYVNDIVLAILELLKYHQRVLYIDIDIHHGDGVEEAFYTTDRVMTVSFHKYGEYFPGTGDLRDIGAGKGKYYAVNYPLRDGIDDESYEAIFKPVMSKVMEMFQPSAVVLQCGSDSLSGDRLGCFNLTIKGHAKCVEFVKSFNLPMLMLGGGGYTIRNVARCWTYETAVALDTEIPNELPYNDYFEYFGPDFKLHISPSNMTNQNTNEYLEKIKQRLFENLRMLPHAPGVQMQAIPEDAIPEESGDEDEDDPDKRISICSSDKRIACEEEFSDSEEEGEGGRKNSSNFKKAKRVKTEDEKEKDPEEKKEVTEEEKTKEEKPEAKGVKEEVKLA

In turn, `O=C(/C=C/c1ccc2nc(CCc3ccccc3)c(Nc3ccc4c(c3)OCO4)n2c1)NO` [Compound 4, 3-[3-(Benzo[1,3]-dioxol-5-ylamino)-2-phenethyl-imidazo[1,2-a]pyridin-6-yl]-N-hydroxy-acrylamide] came in with a 50% growth inhibitory concentration (GI50) in the experiment on Colo205 cells (COLO 205, 96 h treatment) of 2800 nM. The IC50 in experiment [1] was 640 nM.
In the experiment with Colo205 cells (COLO 205, 96 h treatment), `CC(C)CCN(C)Cc1c(C(C)(C)C)nc2cc(/C=C/C(=O)NO)ccn12` [Compound 108, 3-(2-tert-Butyl-3-{[methyl-(3-methyl-butyl)-amino]-methyl}-imidazo[1,2-a]pyridin-7-yl)-N-hydroxy-acrylamide] returned a concentration for 50% growth inhibition (GI50) of 900 nM. Moreover, the half-maximal inhibitory concentration (IC50) in experiment [1] is 350 nM.
With `CCCCCCc1nc2ccc(/C=C/C(=O)NO)cn2c1NCCC(=O)NCC` [Compound 18, (E)-3-(3-(3-(ethylamino)-3-oxopropylamino)-2-hexylimidazo[1,2-a]pyridin-6-yl)-N-hydroxyacrylamide], in the experiment on Colo205 cells (COLO 205, 96 h treatment), the GI50 is 12000 nM. Besides, in experiment [1], the IC50 was 630 nM.
The matching figures for `CC(C)(C)NCc1c(-c2ccccc2)nc2cc(C(=O)NO)ccn12` [Compound 70, 3-(tert-Butylamino-methyl)-2-phenyl-imidazo[1,2-a]pyridine-7-carboxylic acid hydroxyamide]: greater than 100000 nM and greater than 10000 nM.
In the experiment on Colo205 cells (COLO 205, 96 h, 96 h treatment), `CCCc1nc2cc(/C=C/C(=O)NO)ccn2c1CNC(C)(C)C` [Compound 123, 3-[3-(tert-Butylamino-methyl)-2-propyl-imidazo[1,2-a]pyridin-7-yl]-N-hydroxy-acrylamide] registered a 50% growth inhibitory concentration (GI50) of 180 nM. Further, the half-maximal inhibitory concentration (IC50) in experiment [1] came out at 40 nM.
On to `Cc1cn2ccc(/C=C/C(=O)NO)cc2n1` [Compound 41, N-Hydroxy-3-(2-methyl-imidazo[1,2-a]pyridin-7-yl)-acrylamide], for which the GI50 with Colo205 cells (COLO 205, 96 h treatment) worked out at 2500 nM. The IC50 in experiment [1] was found to be 1300 nM.
Regarding `CCCCNc1c(CCCC)nc2ccc(/C=C/C(=O)NO)cn12` [Compound 13, 3-(2-Butyl-3-butylamino-imidazo[1,2-a]pyridin-6-yl)-N-hydroxy-acrylamide], the concentration for 50% growth inhibition (GI50) with Colo205 cells (COLO 205, 96 h treatment) stood at 8900 nM. The IC50 in experiment [1] stood at 720 nM.
The matching figures for `CCCCN(CC)Cc1c(CCC)nc2cc(/C=C/C(=O)NO)ccn12` [Compound 132, 3-{3-[(Butyl-ethylamino)-methyl]-2-propyl-imidazo[1,2-a]pyridin-7-yl}-N-hydroxy-acrylamide]: 160 nM and 40 nM.
In the experiment with Colo205 cells (COLO 205, 96 h treatment), `CCCCc1nc2cc(/C=C/C(=O)NO)ccn2c1CN(CC)CC(CC)CC` [Compound 118, 3-(2-Butyl-3-{[ethyl-(2-ethyl-butyl)-amino]-methyl}-imidazo[1,2-a]pyridin-7-yl)-N-hydroxy-acrylamide] registered a concentration for 50% growth inhibition (GI50) of 390 nM. Besides, in experiment [1], the IC50 was found to be 150 nM.
The compound `CCCN(C)Cc1c(C(C)(C)C)nc2cc(/C=C/C(=O)NO)ccn12` [Compound 50, 3-{2-tert-Butyl-3-[(methyl-propyl-amino)-methyl]-imidazo[1,2-a]pyridin-7-yl}-N-hydroxy-acrylamide] returned a GI50 in the experiment on Colo205 cells (COLO 205, 96 h treatment) of 2400 nM. Moreover, the half-inhibitory concentration (IC50) in experiment [1] was 520 nM.
The matching figures for `O=C(/C=C/c1ccn2c(CNCC3CC3)c(-c3ccccc3)nc2c1)NO` [Compound 61, 3-{3-[(Cyclopropylmethyl-amino)-methyl]-2-phenyl-imidazo[1,2-a]pyridin-7-yl}-N-hydroxy-acrylamide]: 560 nM and 80 nM.
The matching figures for `O=C(/C=C/c1ccn2c(CNC3CC3)c(-c3ccccc3)nc2c1)NO` [Compound 62, 3-(3-Cyclopropylaminomethyl-2-phenyl-imidazo[1,2-a]pyridin-7-yl)-N-hydroxy-acrylamide]: 2500 nM and 310 nM.
For `CCN(CCC(C)(C)C)Cc1c(-c2ccccc2)nc2cc(/C=C/C(=O)NO)ccn12` [Compound 122, 3-(3-{[(3,3-Dimethyl-butyl)-ethyl-amino]-methyl}-2-phenyl-imidazo[1,2-a]pyridin-7-yl)-N-hydroxy-acrylamide], in the experiment on Colo205 cells (COLO 205, 96 h treatment), growth was halved (GI50) at 520 nM. Also, the half-inhibitory concentration (IC50) in experiment [1] worked out at 50 nM.
The matching figures for `COc1cc(Nc2c(CCc3ccccc3)nc3ccc(/C=C/C(=O)NO)cn23)cc(OC)c1OC` [Compound 1, N-Hydroxy-3-[2-phenethyl-3-(3,4,5-trimethoxy-phenylamino)-imidazo[1,2-a]pyridin-6-yl]-acrylamide]: 2100 nM and 150 nM.
The matching figures for `CCN(CCC(C)(C)C)Cc1c(CCC(C)C)nc2cc(/C=C/C(=O)NO)ccn12` [Compound 143, 3-[3-{[(3,3-Dimethyl-butyl)-ethyl-amino]-methyl}-2-(3-methyl-butyl)-imidazo[1,2-a]pyridin-7-yl]-N-hydroxy-acrylamide]: 130 nM and 40 nM.
The matching figures for `CCCCCCc1nc2cc(/C=C/C(=O)NO)ccn2c1NCCC(=O)N(C)C` [Compound 30, 3-[3-(2-Dimethylcarbamoyl-ethylamino)-2-hexyl-imidazo[1,2-a]pyridin-7-yl]-N-hydroxy-acrylamide]: 3900 nM and 880 nM.
`CC(C)Cc1nc2cc(/C=C/C(=O)NO)ccn2c1CNC(C)(C)C` [Compound 133, 3-[3-(tert-Butylamino-methyl)-2-isobutyl-imidazo[1,2-a]pyridin-7-yl]-N-hydroxy-acrylamide] gave a GI50 with Colo205 cells (COLO 205, 96 h treatment) of 210 nM. In addition, the IC50 in experiment [1] was determined as 50 nM.
The matching figures for `CCc1nc2cc(/C=C/C(=O)NO)ccn2c1CN(CC)CCC(C)C` [Compound 139, 3-(2-Ethyl-3-{[ethyl-(3-methyl-butyl)-amino]-methyl}-imidazo[1,2-a]pyridin-7-yl)-N-hydroxy-acrylamide]: 100 nM and 20 nM.
The matching figures for `CCc1nc2cc(/C=C/C(=O)NO)ccn2c1CNC(C)(C)C` [Compound 137, 3-[3-(tert-Butylamino-methyl)-2-ethyl-imidazo[1,2-a]pyridin-7-yl]-N-hydroxy-acrylamide]: 260 nM and 30 nM.
In the case of `CCCCNCc1c(CCCC)nc2cc(/C=C/C(=O)NO)ccn12` [Compound 72, 3-(2-Butyl-3-butylaminomethyl-imidazo[1,2-a]pyridin-7-yl)-N-hydroxy-acrylamide], in the experiment on Colo205 cells (COLO 205, 96 h treatment), the GI50 came to 180 nM. Also, the IC50 in experiment [1] amounted to 20 nM.
In the experiment on Colo205 cells (COLO 205, 96 h treatment), `CCCCN(C)Cc1c(C(C)(C)C)nc2cc(/C=C/C(=O)NO)ccn12` [Compound 106, 3-{2-tert-Butyl-3-[(butyl-methyl-amino)-methyl]-imidazo[1,2-a]pyridin-7-yl}-N-hydroxy-acrylamide] came in with a GI50 of 1700 nM. The IC50 in experiment [1] was 220 nM.
In the experiment on Colo205 cells (COLO 205, 96 h treatment), `CCN(CC)Cc1c(-c2ccccc2)nc2cc(/C=C/C(=O)NO)ccn12` [Compound 51, 3-(3-Diethylaminomethyl-2-phenyl-imidazo[1,2-a]pyridin-7-yl)-N-hydroxy-acrylamide] showed a 50% growth inhibitory concentration (GI50) of 1100 nM. The IC50 in experiment [1] amounted to 200 nM.
Take `CCCCCCN(CC)Cc1c(C(C)(C)C)nc2cc(/C=C/C(=O)NO)ccn12` [Compound 90, 3-{2-tert-Butyl-3-[(ethyl-hexyl-amino)-methyl]-imidazo[1,2-a]pyridin-7-yl}-N-hydroxy-acrylamide]: the GI50 in the experiment with Colo205 cells (COLO 205, 96 h treatment) came to 2000 nM. For the same compound, the IC50 in experiment [1] was found to be 240 nM.
In the case of `CC(C)Nc1c(C(C)C)nc2ccc(/C=C/C(=O)NO)cn12` [Compound 14, N-Hydroxy-3-(2-isopropyl-3-isopropylamino-imidazo[1,2-a]pyridin-6-yl)-acrylamide], the GI50 in the experiment with Colo205 cells (COLO 205, 96 h treatment) is 9200 nM. For the same compound, the half-inhibitory concentration (IC50) in experiment [1] was determined as 2700 nM.
